The test system of assay [1] is NMDA receptors. Conditions: ref Chen et al., 2010, cited from earlier work; for effect on NMDA-induced substance P release: Marvizon et al., 1997.
In a further assay the test system is AC/PKA pathway. In words: NK1R internalization induced by forskolin or 8-Br-cAMP in slices. More on the design: species or system rat. The conditions noted are these: 60 min; for NK1R internalization elicited: 10 μM forskolin or 0.5 mM 8-Br-cAMP, no NMDA.
The subject of assay [2] is NMDA receptor-induced substance P release. Kind of assay: NMDA-induced NK1R internalization in slices preincubated with BVT948. More on the design: species or system rat. Conditions: 10 μM BVT948, 60 min preincubation.
The test system of assay [3] is CTX-insensitive component of NMDA-induced substance P release. In words: CTX-insensitive component of NMDA-induced substance P release in slices. More on the design: species or system rat. Conditions: 1 μM DAMGO, 100 μM SQ22536 or 10 μM KT5720, 60 min; for additional inhibition in presence of CTX GVIA: 1 μM CTX GVIA; for additional inhibition in presence of CTX MVIIC: 1 μM CTX MVIIC.

The next assay has as its system protein kinase A (PKA). Kind of assay: PKA inhibition: NMDA-induced NK1R internalization in slices. Details: species or system rat. The conditions noted are these: 10 μM, 60 min.
The test system of assay [4] is substance P release / NK1R internalization in lamina I neurons. In words: In vivo NK1R internalization induced by intrathecal NMDA. Details: species or system rat. Conditions: for lamina 1 neurons with NK1R internalization in example image: confocal image, one rat per group, L4.
For assay [5], the system named is NMDA receptors. Kind of assay: NMDA-induced NK1R internalization in spinal cord slices. Details: species or system rat. The conditions noted are these: 10 μM NMDA + 10 μM D-Ser, 2 min, 35 °C.
In assay [6] the test system is NMDA receptors in DRG neurons. The format is cell-based, rat.
For the next assay, the system named is protein kinase C (PKC). In words: PKC inhibitors and activators: NMDA-induced NK1R internalization in slices. The conditions noted are these: for effect on NMDA-induced substance P release: 60 min. More on the design: species or system rat.
In another assay the test system is adenylyl cyclase (AC). Kind of assay: AC inhibition: NMDA-induced NK1R internalization in slices. The conditions noted are these: SQ22536 10 μM, 60 min. More on the design: species or system rat.
Assay [7] has as its system TRPV1 channels. Conditions: cited from earlier work.
Assay [8] concerns TRPV1 channels. More on the design: species or system rat.
The target of assay [9] is NMDA receptors with the NR2B subunit (Rattus norvegicus, UniProt P35439+Q00960). Conditions: % NK1R internalization.
Sequence of NMDA receptors with the NR2B subunit (Q00960 27-1482, other chains not shown): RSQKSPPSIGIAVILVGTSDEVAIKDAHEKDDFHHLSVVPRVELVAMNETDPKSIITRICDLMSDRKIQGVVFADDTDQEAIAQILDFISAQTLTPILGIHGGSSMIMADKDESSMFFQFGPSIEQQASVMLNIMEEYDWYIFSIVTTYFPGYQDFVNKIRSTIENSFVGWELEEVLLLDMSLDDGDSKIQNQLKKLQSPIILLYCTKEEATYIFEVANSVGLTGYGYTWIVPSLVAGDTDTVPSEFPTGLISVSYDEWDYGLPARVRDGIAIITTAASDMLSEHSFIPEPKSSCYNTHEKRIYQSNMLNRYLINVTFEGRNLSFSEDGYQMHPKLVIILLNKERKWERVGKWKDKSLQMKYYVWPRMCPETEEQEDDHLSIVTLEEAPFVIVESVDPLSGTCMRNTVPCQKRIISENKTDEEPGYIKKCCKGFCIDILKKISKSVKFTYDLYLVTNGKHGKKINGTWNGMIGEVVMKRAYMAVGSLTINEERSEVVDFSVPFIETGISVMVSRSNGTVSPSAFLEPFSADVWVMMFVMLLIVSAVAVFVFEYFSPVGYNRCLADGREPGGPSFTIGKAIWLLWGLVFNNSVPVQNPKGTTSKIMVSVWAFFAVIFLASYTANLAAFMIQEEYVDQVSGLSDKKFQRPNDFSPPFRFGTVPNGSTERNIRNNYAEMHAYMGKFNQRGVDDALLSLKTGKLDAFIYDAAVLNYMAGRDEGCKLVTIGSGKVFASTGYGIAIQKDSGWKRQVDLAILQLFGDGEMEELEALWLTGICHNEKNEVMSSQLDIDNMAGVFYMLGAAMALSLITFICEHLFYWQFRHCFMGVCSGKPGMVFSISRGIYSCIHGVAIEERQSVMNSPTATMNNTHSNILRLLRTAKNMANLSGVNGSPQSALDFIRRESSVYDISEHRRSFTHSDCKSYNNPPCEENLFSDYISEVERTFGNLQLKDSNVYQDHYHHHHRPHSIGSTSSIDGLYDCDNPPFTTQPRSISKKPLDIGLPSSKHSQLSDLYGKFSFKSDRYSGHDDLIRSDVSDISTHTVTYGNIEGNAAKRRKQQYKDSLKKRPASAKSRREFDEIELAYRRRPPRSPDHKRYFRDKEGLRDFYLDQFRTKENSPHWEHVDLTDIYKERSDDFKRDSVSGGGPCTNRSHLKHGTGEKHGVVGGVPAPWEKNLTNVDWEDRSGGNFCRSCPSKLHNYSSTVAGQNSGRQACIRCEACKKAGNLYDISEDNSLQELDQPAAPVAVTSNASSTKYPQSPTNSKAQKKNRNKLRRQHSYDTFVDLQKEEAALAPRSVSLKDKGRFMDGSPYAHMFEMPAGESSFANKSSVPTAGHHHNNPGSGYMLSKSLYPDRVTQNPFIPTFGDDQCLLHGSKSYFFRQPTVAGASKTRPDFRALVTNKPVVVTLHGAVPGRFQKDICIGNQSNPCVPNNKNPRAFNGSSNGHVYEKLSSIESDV
Another assay deals with rat brain membranes. Conditions: ref Grimwood et al., 2000; cited from earlier work.
The subject of a further assay is NR1a/NR2B NMDA receptors. Conditions: Xenopus oocytes; ref Williams, 1993; cited from earlier work.
In the next assay the test system is GIRK channels. More on the design: species or system rat.
In assay [10] the test system is NMDA receptor-induced substance P release. Kind of assay: NMDA-induced NK1R internalization in slices preincubated with BDNF. More on the design: species or system rat.
Setting [11] is: chelerythrine 10 μM, Ro-32-0432, TPPB 1 μM, with 10 nM DAMGO.
[12] abbreviates: chelerythrine 10 μM, Ro-32-0432, TPPB, PMA 1 μM.

Entries after “also recorded” stand apart in the source; their conditions may differ. Counter-ions that a name gives are not always drawn. Like-named read-outs stand apart in the source and are kept apart here. Where no end group is shown, it is not given here.

Consider 19 molecules from publication PMC5726399 (Neuropharmacology, 2017).

The term EC50 denotes the concentration at which the effect is half-maximal. What is called Kd is the concentration at which binding is half-saturated.

As for `NC(CCCP(=O)(O)O)C(=O)O` (centres unmarked) [2-amino-phosphopentanoic acid], the “effect on NMDA-induced substance P release” value in the assay with NMDA receptors [1] is reported as “inhibited”.
With `Nc1ncnc2c1nc(Br)n2[C@@H]1O[C@@H]2COP(=O)(O)O[C@H]2[C@H]1O` [8-Br-cAMP, 8-Bromoadenosine-3′,5′-cyclic monophosphate], the NK1R internalization elicited result in the assay with AC/PKA pathway was “greater than NMDA+D-Ser, with 8-Br-cAMP producing the larger effect”.
As for `CC1(C)C(=O)N=C2C1=C(O)C(=O)c1ccccc12` [BVT948, 4-hydroxy-3,3-dimethyl-2H-benz[g]indole-2,5(3H)-dione], the “effect on NMDA-induced NK1R internalization” value in [2] is recorded as “substantially increased NMDA-induced NK1R internalization”.
In the case of `CCCCCCOC(=O)[C@]1(O)C[C@@H]2O[C@@]1(C)n1c3ccccc3c3c4c(c5c6ccccc6n2c5c31)C(=O)NC4` [KT5720, (9R,10S,12S)-2,3,9,10,11,12-Hexahydro-10-hydroxy-9-methyl-1-oxo-9,12-epoxy-1H-diindolo[1,2,3-fg:3′,2′,1′-kl]pyrrolo[3,4-i][1,6]benzodiazocine-10-carboxylic acid, hexyl ester], in assay [3], the “additional inhibition in presence of CTX GVIA” value is reported as “did not produce any further inhibition” and the “additional inhibition in presence of CTX MVIIC” value is given as “did not produce any further inhibition”. In the assay on protein kinase A (PKA), the “effect on NMDA-induced NK1R internalization” value is “did not completely abolish NMDA-induced NK1R internalization”. In the assay with protein kinase A (PKA) (listed as KT 5720), the “effect on NMDA-induced NK1R internalization” value is listed as “decreased”.
As to `C[C@]12N[C@H](Cc3ccccc31)c1ccccc12` [MK-801, (5S,10R)-(+)-5-Methyl-10,11-dihydro-5H-dibenzo[a, d]cyclohepten-5,10-imine maleate], in the assay on AC/PKA pathway (10 μM MK-801 or 1 μM DAMGO with 10 μM forskolin), the “effect on forskolin-evoked substance P release” value was “substantially decreased their effect on substance P release, although not to control levels”. In the assay with AC/PKA pathway (10 μM MK-801 or 1 μM DAMGO with 0.5 mM 8-Br-cAMP), the “effect on 8-Br-cAMP-evoked substance P release” value was “substantially decreased their effect on substance P release, although not to control levels”. The “effect on NMDA-induced substance P release” value in the assay on NMDA receptors [1] was “inhibited”.
On to `CN[C@H](CC(=O)O)C(=O)O` [NMDA, N-methyl-D-aspartate], for which the “lamina 1 neurons with NK1R internalization in example image” value in [4] is “there was no NK1R internalization”. Also, in the assay with NMDA receptors [5], the “NK1R internalization induced (lamina I NK1R neurons)” value is given as “about 50%”. Also, the “[Ca2+]i increase” value in [6] was “increases in some of the neurons”.
For `CN(C)C[C@H]1CCn2c(c(C3=C(c4cn(C)c5ccccc45)C(=O)NC3=O)c3ccccc32)C1.Cl` [Ro-32-0432, 3-[(8S)-8-[(Dimethylamino)methyl]-6,7,8,9-tetrahydropyrido[1,2-a]indol-10-yl]-4-(1-methyl-1H-indol-3-yl)-1H-pyrrole-2,5-dione hydrochloride], in the assay with protein kinase C (PKC) (setting [11]), the “effect on inhibition by 10 nM DAMGO” value was “did not increase its inhibition by DAMGO”. In addition, the “effect on NMDA-induced substance P release” value in the assay on protein kinase C (PKC) (setting [12]) is on record as “did not affect NMDA-induced substance P release”.
As to `Nc1ncnc2c1ncn2C1CCCO1` (centres unmarked) [SQ22536, 9-(Tetrahydro-2-furanyl)-9H-purin-6-amine], in assay [3], the “additional inhibition in presence of CTX GVIA” value is given as “did not produce any further inhibition” and the “additional inhibition in presence of CTX MVIIC” value is “did not produce any further inhibition”. The “effect on NMDA-induced NK1R internalization” value in the assay on adenylyl cyclase (AC) is reported as “but not at 10 μM”.
As for `CC(C)[C@H]1C(=O)N[C@H](CO)Cc2cc(NC(=O)/C=C/C=C/c3ccc(C(F)(F)F)cc3)ccc2N1C` [TPPB, (2E4E)-N-[(2S,5S)-1,2,3,4,5,6-Hexahydro-5-(hydroxymethyl)-1-methyl-2-(1-methylethyl)-3-oxo-1,4-benzodiazocin-8-yl]-5-[4-(trifluoromethyl)phenyl]-2,4-pentadienamide], in the assay with protein kinase C (PKC), the “effect on inhibition by 10 nM DAMGO” value is “did not affect inhibition by 10 nM DAMGO” and the “effect on NMDA-induced substance P release” value is listed as “strongly increased NMDA-induced substance P release”.
For the molecule `NCC(CC(=O)O)c1ccc(Cl)cc1` (centres unmarked) [baclofen], the “effect on substance P release by dorsal root or low-concentration capsaicin” value in the assay with TRPV1 channels [7] (capsaicin on dorsal root or low concentrations, ref Lao et al., 2003) is “can be inhibited”. Besides, in the assay on TRPV1 channels [7] (higher capsaicin concentrations, ref Lao et al., 2003), the “effect on substance P release by higher concentrations of capsaicin” value is “did not inhibit substance P release”.
With `COc1cc(CNC(=O)CCCC/C=C/C(C)C)ccc1O` [capsaicin], in the assay with NMDA receptors [1] (C-fibers depleted by incubating slices with capsaicin), the “effect of substance P depletion on NMDA-induced substance P release” value is recorded as “disappears”. In addition, in the assay with TRPV1 channels [7] (read-out: EC50 to induce NK1R internalization, ref Marvizon et al., 2003a), the half-maximal effective concentration (EC50) is 370 nM. In the assay on TRPV1 channels [8], the “NK1R internalization elicited by 0.3 μM capsaicin” value is 75% and the “NK1R internalization elicited by 1 μM capsaicin” value is “maximal NK1R internalization”.
In the case of `Oc1cc2c(cc1O)CN(C(=S)NCCc1ccc(Cl)cc1)CCC2` [capsazepine], the “effect on capsaicin-induced substance P release (TRPV1 antagonist)” value in the assay on TRPV1 channels [7] (ref Lao et al., 2003) is reported as “blocked”.
Consider `COc1ccc2c(c[n+](C)c3c4cc5c(cc4ccc23)OCO5)c1OC` [chelerythrine], for which, in the assay with protein kinase C (PKC) (setting [11]), the “effect on inhibition by 10 nM DAMGO” value is recorded as “did not increase its inhibition by DAMGO; also recorded: showed a trend to decrease the inhibition by 10 nM DAMGO”. The “effect on NMDA-induced substance P release” value with protein kinase C (PKC) (setting [12]) is reported as “did not affect NMDA-induced substance P release”.
Consider `C=C[C@@]1(C)CC(=O)[C@]2(O)[C@@]3(C)[C@@H](O)CCC(C)(C)[C@@H]3[C@H](O)[C@H](OC(C)=O)[C@@]2(C)O1` [forskolin], for which the NK1R internalization elicited entry in the assay with AC/PKA pathway is listed as “greater than NMDA+D-Ser”.
On to `CC(C(O)c1ccc(O)cc1)N1CCC(Cc2ccccc2)CC1` (centres unmarked) [ifenprodil], for which the top in assay [9] is 62 ± 3%. The molecule also had a bottom in [9] (basal without NMDA 12±1%) of 26 ± 2%. On rat brain membranes, the Kd is 25 nM. In addition, the “potency to inhibit currents” value in the assay with NR1a/NR2B NMDA receptors was 340 nM.
With `CCN(CC)CC(=O)Nc1c(C)cccc1C` [lidocaine], the “effect on NMDA-induced substance P release (action potential block)” value in the assay with NMDA receptors [1] is reported as “not affected”.
“PKI 14–22: protein kinase inhibitor 14–22, PKA inhibitor (GRTGRRNAI; also: myristoylated; UniProt P61925 15-23, looked up, fragment)”: the “effect on NMDA-induced NK1R internalization” value in the assay with protein kinase A (PKA) was “decreased”.
In the case of tertiapin Q, in the assay with GIRK channels, the “effect on NMDA-induced NK1R internalization” value is “small but significant inhibition” and the “effect on inhibition by DAMGO” value is given as “did not affect the inhibition by DAMGO”.

B1: BDNF: brain-derived neurotrophic factor (protein, UniProt P23560 19-247, looked up)
Neurotrophic factor BDNF …: APMKEANIRGQGGLAYPGVRTHGTLESVNGPKAGSRGLTSLADTFEHVIEELLDEDQKVRPNEENNKDADLYTSRVMLSSQVPLEPPLLFLLEEYKNYLDAANMSMRVRRHSDPARRGELSVCDSISEWVTAADKKTAVDMSGGTVTVLEKVPVSKGQLKQYFYETKCNPMGYTKEGCRGIDKRHWNSQCRTTQSYVRALTMDSKKRIGWRFIRIDTSCVCTLTIKRGR
With B1, the “lamina 1 neurons with NK1R internalization in example image” value in assay [4] is recorded as 5 out of 7 cells. The “effect of BDNF on NMDA-induced NK1R internalization” value in assay [4] (intrathecal BDNF 0.3 μg, 4 h before NMDA + D-Ser, p<0.01 vs NMDA) is “significant increase in NMDA-induced NK1R internalization”. The “effect on NMDA-induced NK1R internalization” value in [10] is given as “increased NMDA-induced NK1R internalization”.
